The subject of assay [1] is TGGAGA cognate hairpin (biotinylated) (DNA, hairpin) CCTTGGAGAGTTTTCTCTCCAAGG
The experiment in a line: SPR, global kinetic fit. As to conditions: 50 mM NaCl; 10 mM HEPES, 1 mM EDTA, pH 7.4, 0.05% P20, 25 °C.

Assay [2] deals with TGGAGA cognate hairpin (DNA, hairpin) CCTTGGAGAGTTTTCTCTCCAAGG
The experiment in a line: UV melting. As to conditions: 50 mM NaCl; 10 mM HEPES, 1 mM EDTA, pH 7.4; 3 µM hairpin, 3 µM compound.

As usually defined, the KD is the constant that tells how readily two partners part at equilibrium. Low values mean tighter binding, high ones weaker binding. For orientation: ΔTm means the change in melting temperature against a reference sample.

Molecules are shown by their SMILES.

Turning to `CN(C)CCCNC(=O)CCNC(=O)c1cc(NC(=O)CCNC(=O)c2cc(NC(=O)c3cc(NC(=O)CCCNC(=O)c4nc(NC(=O)c5cc(NC(=O)c6nc(NC(=O)c7nccn7C)cn6C)cn5C)cn4C)cn3C)cn2C)cn1C`, in assay [1], the KD came to 0.0364 ± 0.0004 µM. As for `CN(C)CCCNC(=O)CCNC(=O)c1cc(NC(=O)c2cc(NC(=O)c3cc(NC(=O)c4cc(NC(=O)CCCNC(=O)c5nc(NC(=O)CCNC(=O)c6nc(NC(=O)c7nccn7C)cn6C)cn5C)cn4C)cn3C)cn2C)cn1C`, the KD in assay [1] was 0.0121 ± 0.0004 µM. Regarding `CN(C)CCCNC(=O)CCNC(=O)c1cc(NC(=O)c2cc(NC(=O)c3cc(NC(=O)c4cc(NC(=O)CCCNC(=O)c5nc(NC(=O)c6cc(NC(=O)c7nc(NC(=O)c8nccn8C)cn7C)cn6C)cn5C)cn4C)cn3C)cn2C)cn1C`, in assay [2], the ΔTm worked out at 7.8 °C. The KD in assay [1] was 0.0025 ± 0.0004 µM. In assay [1], `CN(CCCN)CCCNC(=O)CCNC(=O)c1cc(NC(=O)CCNC(=O)c2cc(NC(=O)c3cc(NC(=O)CCCNC(=O)c4nc(NC(=O)CCNC(=O)c5nc(NC(=O)c6nccn6C)cn5C)cn4C)cn3C)cn2C)cn1C` showed a KD of 0.0263 ± 0.0022 µM. On to `CN(CCCN)CCCNC(=O)CCNC(=O)c1cc(NC(=O)c2cc(NC(=O)CCNC(=O)c3cc(NC(=O)CCCNC(=O)c4nc(NC(=O)CCNC(=O)c5nc(NC(=O)c6nccn6C)cn5C)cn4C)cn3C)cn2C)cn1C`, for which the ΔTm in assay [2] is 3.6 °C. In addition, the KD in assay [1] was 0.0186 ± 0.0008 µM. Take `CN(CCCN)CCCNC(=O)CCNC(=O)c1cc(NC(=O)c2cc(NC(=O)CCNC(=O)c3cc(NC(=O)CCCNC(=O)c4nc(NC(=O)c5cc(NC(=O)c6nc(NC(=O)c7nccn7C)cn6C)cn5C)cn4C)cn3C)cn2C)cn1C`: the ΔTm in assay [2] was 8.0 °C. This compound gave a KD in assay [1] of 0.0026 ± 0.0002 µM.

Consider `CN(CCCN)CCCNC(=O)CCNC(=O)c1cc(NC(=O)c2cc(NC(=O)c3cc(NC(=O)c4cc(NC(=O)CCCNC(=O)c5nc(NC(=O)c6cc(NC(=O)c7nc(NC(=O)c8nccn8C)cn7C)cn6C)cn5C)cn4C)cn3C)cn2C)cn1C`, for which the KD in assay [1] is 0.002 ± 0.0002 µM.
